Assays:
SETVI (Foxtail, Green) [1] = assay: Postemergence herbicidal evaluation; assay type: in vivo, Setaria viridis; conditions: postemergence
Procedure, shortened: (§1)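 Herbicidal effect was judged by eye on a 0–9 scale covering stand, vigor, deformity, size and chlorosis, compared with controls, four to five weeks after seedlings about two weeks old were sprayed (40 psi, ~0.0156–0.500 kg/ha).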

ZEAMX (Corn, Field) [2] = assay: Preemergence herbicidal evaluation; assay type: in vivo, Zea mays; conditions: rated 4-5 weeks after treatment
Procedure, shortened: (§2)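 Scores (0–9) reflect visual comparison with control plants for stand, vigor, malformation, size and chlorosis. Compound was applied to the soil after sowing, before emergence, as an aqueous acetone spray (about 0.0156–0.500 kg/ha), and cups were kept in a greenhouse for 4–5 weeks.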

SETVI (Foxtail, Green) [3] = assay: Preemergence herbicidal evaluation; assay type: in vivo, Setaria viridis; conditions: rated 4-5 weeks after treatment
Procedure, shortened: as §2

[4] = system: ECHORC (Watergrass (Calif.)); assay: Preemergence weed control under flooded paddy conditions; assay type: in vivo, Echinochloa oryzoides; conditions: rated 3-4 weeks after treatment
Procedure, shortened: (§3)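 Silt loam, seeds in top 0.5 cm; flood held 1.5-3 cm; test cpd as acetone/water 50/50 into flood water, ~0.0313-0.500 kg/ha a.i.; greenhouse 3-4 wk; visual 0-9 score vs control.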

ECHCG (Barnyardgrass) = assay: Preemergence herbicidal evaluation; assay type: in vivo, Echinochloa crus-galli; conditions: rated 4-5 weeks after treatment
Procedure, shortened: as §2

CYPIR (Rice Flatsedge) [5] = assay: Postemergence weed control under flooded paddy conditions; assay type: in vivo, Cyperus iria; conditions: postemergence weeds, rated 3 to 4 weeks after treatment
Procedure, shortened: (§4)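 Containers holding 3–5 cm weeds and rice at 1.5–2.5 leaves are flooded to 1.5–3 cm above soil. Compound in 50/50 v/v aqueous/acetone is then added directly to the water, about 0.0313–0.500 kg/ha. Plants are kept in the greenhouse and rated 0–9 visually at 3–4 weeks.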

[6] = system: SAGPY (Arrowhead (Pygmaea)); assay: as above; assay type: in vivo, Sagittaria pygmaea; conditions: postemergence weeds, rated 3 to 4 weeks after treatment
Procedure, shortened: as §4

[7] = system: ECHORC (Watergrass (Calif.)); assay: as above; assay type: in vivo, Echinochloa oryzoides; conditions: postemergence weeds, rated 3 to 4 weeks after treatment
Procedure, shortened: as §4

[8] = system: TRZAWR (Wheat, Winter, cv Riband); assay: Preemergence herbicidal evaluation; assay type: in vivo, Triticum aestivum; conditions: rated 4-5 weeks after treatment
Procedure, shortened: as §2

CYPSE (Flatsedge) [9] = assay: Postemergence weed control under flooded paddy conditions; assay type: in vivo, Cyperus serotinus; conditions: postemergence weeds, rated 3 to 4 weeks after treatment
Procedure, shortened: as §4

ORYSAT (Rice, Tebonnet) = assay: Postemergence herbicidal evaluation; assay type: in vivo, Oryza sativa, (L.) Tebonnet; conditions: postemergence
Procedure, shortened: as §1

CYPSE (Flatsedge) [10] = assay: Preemergence weed control under flooded paddy conditions; assay type: in vivo, Cyperus serotinus; conditions: rated 3-4 weeks after treatment
Procedure, shortened: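 First, seeds or propagules go into the top 0.5 cm of silt loam; next, water is held 1.5 to 3 cm over the soil; then compound (50/50 acetone/water) is pipetted into it at about 0.0313 to 0.500 kg/ha; finally plants are rated visually 0-9 after three to four weeks.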

CYPIR (Rice Flatsedge) [11] = assay: as above; assay type: in vivo, Cyperus iria; conditions: rated 3-4 weeks after treatment
Procedure, shortened: as §3

ZEAMX (Corn, Field) [12] = assay: Postemergence herbicidal evaluation; assay type: in vivo, Zea mays; conditions: postemergence
Procedure, shortened: as §1

## C#CCOC(=O)CC1SC(=Nc2cc(-n3c(=O)cc(C(F)(F)F)n(C)c3=O)c(F)cc2Cl)N(CC=C)C1=O (stereo not drawn) [Compound 67, 2-Propynyl 3-allyl-2-{{2-chloro-5-[3,6-dihydro-3-methyl-2,6-dioxo-4-(trifluoromethyl)-1(2H)-pyrimidinyl]-4-fluorophenyl}imino}-4-oxo-5-thiazolidineacetate]
SETVI (Foxtail, Green) [1]; rate 0.0158 kg/ha
  SETVI herbicidal rating: 9.0
SETVI (Foxtail, Green) [1]; rate 0.0315 kg/ha
  SETVI herbicidal rating: 9.0
SETVI (Foxtail, Green) [1]; rate 0.0630 kg/ha
  SETVI herbicidal rating: 9.0
ZEAMX (Corn, Field) [2]; rate 0.0156 kg/ha
  Preemergence herbicidal rating ZEAMX: 0.0
ZEAMX (Corn, Field) [2]; rate 0.0313 kg/ha
  Preemergence herbicidal rating ZEAMX: 0.0
ZEAMX (Corn, Field) [2]; rate 0.0625 kg/ha
  Preemergence herbicidal rating ZEAMX: 1.0
ZEAMX (Corn, Field) [2]; rate 0.1250 kg/ha
  Preemergence herbicidal rating ZEAMX: 1.0
ZEAMX (Corn, Field) [2]; rate 0.2500 kg/ha
  Preemergence herbicidal rating ZEAMX: 1.0
SETVI (Foxtail, Green) [3]; rate 0.0156 kg/ha
  Preemergence herbicidal rating SETVI: 0.0
SETVI (Foxtail, Green) [3]; rate 0.0313 kg/ha
  Preemergence herbicidal rating SETVI: 0.0
SETVI (Foxtail, Green) [3]; rate 0.0625 kg/ha
  Preemergence herbicidal rating SETVI: 0.0
SETVI (Foxtail, Green) [3]; rate 0.1250 kg/ha
  Preemergence herbicidal rating SETVI: 6.0
SETVI (Foxtail, Green) [3]; rate 0.2500 kg/ha
  Preemergence herbicidal rating SETVI: 7.0
[4]; 0.0313 kg/ha
  ECHORC herbicidal effect rating: 0.0
[4]; 0.0625 kg/ha
  ECHORC herbicidal effect rating: 4.0
[4]; 0.1250 kg/ha
  ECHORC herbicidal effect rating: 5.0
[4]; 0.2500 kg/ha
  ECHORC herbicidal effect rating: 5.0
ECHCG (Barnyardgrass); rate 0.0156 kg/ha
  Preemergence herbicidal rating ECHCG: 0.0
ECHCG (Barnyardgrass); rate 0.0313 kg/ha
  Preemergence herbicidal rating ECHCG: 0.0
ECHCG (Barnyardgrass); rate 0.0625 kg/ha
  Preemergence herbicidal rating ECHCG: 0.0
ECHCG (Barnyardgrass); rate 0.1250 kg/ha
  Preemergence herbicidal rating ECHCG: 1.0
ECHCG (Barnyardgrass); rate 0.2500 kg/ha
  Preemergence herbicidal rating ECHCG: 1.0
CYPIR (Rice Flatsedge) [5]; Rate 0.0313 kg/ha
  Herbicidal rating CYPIR: 5.0
CYPIR (Rice Flatsedge) [5]; Rate 0.0625 kg/ha
  Herbicidal rating CYPIR: 5.0
CYPIR (Rice Flatsedge) [5]; Rate 0.1250 kg/ha
  Herbicidal rating CYPIR: 5.0
CYPIR (Rice Flatsedge) [5]; Rate 0.2500 kg/ha
  Herbicidal rating CYPIR: 8.0
[6]; Rate 0.0313 kg/ha
  Herbicidal rating SAGPY: 0.0
[6]; Rate 0.0625 kg/ha
  Herbicidal rating SAGPY: 4.0
[6]; Rate 0.1250 kg/ha
  Herbicidal rating SAGPY: 4.0
[6]; Rate 0.2500 kg/ha
  Herbicidal rating SAGPY: 6.0
[7]; Rate 0.0313 kg/ha
  Herbicidal rating ECHORC: 0.0
[7]; Rate 0.0625 kg/ha
  Herbicidal rating ECHORC: 4.0
[7]; Rate 0.1250 kg/ha
  Herbicidal rating ECHORC: 5.0
[7]; Rate 0.2500 kg/ha
  Herbicidal rating ECHORC: 5.0
[8]; rate 0.0156 kg/ha
  Preemergence herbicidal rating TRZAWR: 0.0
[8]; rate 0.0313 kg/ha
  Preemergence herbicidal rating TRZAWR: 0.0
[8]; rate 0.0625 kg/ha
  Preemergence herbicidal rating TRZAWR: 0.0
[8]; rate 0.1250 kg/ha
  Preemergence herbicidal rating TRZAWR: 1.0
[8]; rate 0.2500 kg/ha
  Preemergence herbicidal rating TRZAWR: 1.0
CYPSE (Flatsedge) [9]; Rate 0.0313 kg/ha
  Herbicidal rating CYPSE: 0.0
CYPSE (Flatsedge) [9]; Rate 0.0625 kg/ha
  Herbicidal rating CYPSE: 3.0
CYPSE (Flatsedge) [9]; Rate 0.1250 kg/ha
  Herbicidal rating CYPSE: 3.0
CYPSE (Flatsedge) [9]; Rate 0.2500 kg/ha
  Herbicidal rating CYPSE: 3.0
ORYSAT (Rice, Tebonnet); rate 0.0158 kg/ha
  ORYSAT herbicidal rating: 4.0
ORYSAT (Rice, Tebonnet); rate 0.0315 kg/ha
  ORYSAT herbicidal rating: 4.5
ORYSAT (Rice, Tebonnet); rate 0.0630 kg/ha
  ORYSAT herbicidal rating: 5.0
CYPSE (Flatsedge) [10]; 0.0313 kg/ha
  CYPSE herbicidal effect rating: 0.0
CYPSE (Flatsedge) [10]; 0.0625 kg/ha
  CYPSE herbicidal effect rating: 3.0
CYPSE (Flatsedge) [10]; 0.1250 kg/ha
  CYPSE herbicidal effect rating: 3.0
CYPSE (Flatsedge) [10]; 0.2500 kg/ha
  CYPSE herbicidal effect rating: 3.0
CYPIR (Rice Flatsedge) [11]; 0.0313 kg/ha
  CYPIR herbicidal effect rating: 5.0
CYPIR (Rice Flatsedge) [11]; 0.0625 kg/ha
  CYPIR herbicidal effect rating: 5.0
CYPIR (Rice Flatsedge) [11]; 0.1250 kg/ha
  CYPIR herbicidal effect rating: 5.0
CYPIR (Rice Flatsedge) [11]; 0.2500 kg/ha
  CYPIR herbicidal effect rating: 8.0
ZEAMX (Corn, Field) [12]; rate 0.0158 kg/ha
  ZEAMX herbicidal rating: 7.5
ZEAMX (Corn, Field) [12]; rate 0.0315 kg/ha
  ZEAMX herbicidal rating: 8.0
ZEAMX (Corn, Field) [12]; rate 0.0630 kg/ha
  ZEAMX herbicidal rating: 8.0

From patent publication US20020137929A1, “1 - (3-heterocyclylphenyl) isothiourea, -isourea, -guanidine and -amidine herbicidal agents” (Intellectual Property Department, BASF Aktiengesellschaft, priority 1998, published 2002)
